According to patent US20250387449A1, “PHARMACEUTICAL COMBINATION COMPRISING AN IBAT INHIBITOR AND A BILE ACID BINDER” (Albireo AB, priority 2010, published 2025):

Assays:
[1] = Phase IIb placebo-controlled dose-finding study in patients with Chronic Idiopathic Constipation: adverse events; type: in vivo, human; conditions: Example 14 plus colonic delivery of 400 mg colesevelam 3 times a day
[2] = as above; type: in vivo, human; conditions: 56 days treatment
Procedure: A Phase IIb, Double-blind, Randomized, Placebo-controlled, Multi-centre, Dose-finding, Efficacy and Safety Study of a Range of Doses of the compound of Example 14 in about 200 patients with Chronic Idiopathic Constipation, where patients were treated for 56 days, was performed. The patients were males or non-pregnant females ≥20 years of age and ≤80 years of age, having a body mass index (BMI) ≥18.5 but <35.
All patients with adverse events of diarrhea and abdominal pain type related to treatment with the compound of Example 14 are presented in table 2.

In the case of `CCCCC1(CCCC)CN(c2ccccc2)c2cc(SC)c(OCC(=O)N[C@@H](C(=O)NCC(=O)O)c3ccccc3)cc2S(=O)(=O)C1` [Example 14, 1,1-Dioxo-3,3-dibutyl-5-phenyl-7-methylthio-8-(N—{(R)-1′-phenyl-1′-[N′-(carboxymethyl)-carbamoyl]methyl}carbamoylmethoxy)-2,3,4,5-tetrahydro-1,5-benzothiazepine], the “bile acid dependent side effects generated from colon (diarrhoea, abdominal pain)” value [1] is reported as “effectively block bile acid side effects generated from the colon”, the “Abdominal Pain, % of Population” value ([2]; 5 mg) is reported as 10.4 % of Population and the “Abdominal Pain, Number of Patients” value ([2]; 5 mg) is reported as 5. The “Diarrhoea, % of Population” value ([2]; 5 mg) was 8.3 % of Population, the “Diarrhoea, Number of Patients” value ([2]; 5 mg) was 4 and the “Abdominal Pain, % of Population” value ([2]; 10 mg) was 10.6 % of Population. The “Abdominal Pain, Number of Patients” value ([2]; 10 mg) was 5, the “Diarrhoea, % of Population” value ([2]; 10 mg) was 10.6 % of Population and the “Diarrhoea, Number of Patients” value ([2]; 10 mg) was 5. The “Abdominal Pain, % of Population” value ([2]; 15 mg) was 27.1 % of Population, the “Abdominal Pain, Number of Patients” value ([2]; 15 mg) was 13 and the “Diarrhoea, % of Population” value ([2]; 15 mg) was 16.7 % of Population. The “Diarrhoea, Number of Patients” value ([2]; 15 mg) was 8.
